For this assay, the target named is BACE (Homo sapiens, UniProt P56817). Nature of the assay: Ki Determination for the Inhibition of BACE (FS-1 peptide fluorescence cleavage assay). The format is biochemical. The conditions noted are these: apparent Ki; 50 nM BACE, 10 μM FS-1 substrate, 0.1M sodium acetate pH 4.5. Summed up: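 Apparent Ki values derive from fitting fluorescence progress data (355 nm excitation, 495 nm emission) of FS-1 peptide cleavage to an integrated competitive tight-binding model. Reactions held 50 nM BACE, 10 μM substrate and inhibitor in 2% DMSO, pH 4.5 acetate buffer, with a 15 min enzyme-compound preincubation at room temperature.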
BACE, sequence (P56817 46-501): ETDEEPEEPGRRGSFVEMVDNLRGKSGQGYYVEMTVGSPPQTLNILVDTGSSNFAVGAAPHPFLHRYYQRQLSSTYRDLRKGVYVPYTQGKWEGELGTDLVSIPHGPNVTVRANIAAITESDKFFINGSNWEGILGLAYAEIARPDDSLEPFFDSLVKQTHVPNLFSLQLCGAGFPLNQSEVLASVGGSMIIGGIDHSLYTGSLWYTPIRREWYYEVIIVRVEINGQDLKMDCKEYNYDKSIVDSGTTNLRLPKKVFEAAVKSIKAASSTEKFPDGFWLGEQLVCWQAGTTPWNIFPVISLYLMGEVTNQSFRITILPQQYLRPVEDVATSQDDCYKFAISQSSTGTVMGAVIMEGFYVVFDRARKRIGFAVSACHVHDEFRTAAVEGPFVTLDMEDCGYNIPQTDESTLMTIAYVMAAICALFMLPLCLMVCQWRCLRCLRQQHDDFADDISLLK
For the compound `FC(F)(F)c1ccccc1OCc1cc(COc2ccccc2C(F)(F)F)c(C2=CCNCC2)cc1COc1ccccc1C(F)(F)F` [Compound 356, 4-[2,4,5-Tris-(2-trifluoromethyl-phenoxymethyl)-phenyl]-1,2,3,6-tetrahydro-pyridine], the Ki is < 3 µM.

For the compound `O=C(O)C1CCCCC1C(=O)NCC1CNCCC1c1ccc(COc2ccccc2C(F)(F)F)cc1` (centres unmarked) [Compound 207, 2-({4-[4-(2-Trifluoromethyl-phenoxymethyl)-phenyl]-piperidin-3-ylmethyl}-carbamoyl)-cyclohexanecarboxylic acid], the Ki was > 30 µM. For `O=C(c1ccc2ccccc2c1)n1c2c(c3cc(OCc4cccc(C(F)(F)F)c4)ccc31)CCNC2` [Compound 507, Naphthalen-2-yl-[6-(3-trifluoromethyl-benzyloxy)-1,2,3,4-tetrahydro-b-carbolin-9-yl]-methanone] the value was < 3 µM. For `FC(F)(F)c1ccc(-c2ccc(N3CCNCC3)c(NCc3ccc4ccccc4c3)c2)cc1` [Compound 166, Naphthalen-2-ylmethyl-(4-piperazin-1-yl-4′-trifluoromethyl-biphenyl-3-yl)-amine] the value was < 3 µM; for `N#Cc1ccc(-c2ccc(N3CCNCC3)c(NC(=O)c3cccc4ccccc34)c2)cc1` [Compound 131, Naphthalene-1-carboxylic acid (4′-cyano-4-piperazin-1-yl-biphenyl-3-yl)-amide], 3 to 30 µM; for `O=C(Nc1cc(Oc2ccc(Cl)cc2)ccc1N1CCNCC1)c1cccc2ccccc12` [Compound 133, Naphthalene-1-carboxylic acid [5-(4-chloro-phenoxy)-2-piperazin-1-yl-phenyl]-amide], 3 to 30 µM. For `FC(F)(F)c1ccccc1OCc1cc(-c2ccccc2C(F)(F)F)ccc1C1=CCNCC1` [Compound 375, 4-[2′-Trifluoromethyl-3-(2-trifluoromethyl-phenoxymethyl)-biphenyl-4-yl]-1,2,3,6-tetrahydro-pyridine] the value was < 3 µM; for `FC(F)(F)c1ccc(-c2cc(COc3ccccc3C(F)(F)F)c(C3=CCNCC3)cc2COc2ccccc2C(F)(F)F)cc1` [Compound 338, 4-[4′-Trifluoromethyl-2,5-bis-(2-trifluoromethyl-phenoxymethyl)-biphenyl-4-yl]-1,2,3,6-tetrahydro-pyridine], 3 to 30 µM; for `CC(NC(=O)C1CNCCC1c1ccc(-c2ccccc2)cc1)c1cccc2ccccc12` (centres unmarked) [Compound 406], 3 to 30 µM. As to `O=C(Nc1cnc(-c2ccc(Cl)c(Cl)c2)nc1N1CCNCC1)c1cccc2ccccc12` [Compound 217, Naphthalene-1-carboxylic acid [2-(3,4-dichloro-phenyl)-4-piperazin-1-yl-pyrimidin-5-yl]-amide], the Ki was 3 to 30 µM. For `O=C(Nc1cc(-c2ccc(C(F)(F)F)cc2)c(COc2ccccc2C(F)(F)F)cc1N1CCNCC1)c1nccc2ccccc12` [Compound 185, Isoquinoline-1-carboxylic acid [4-piperazin-1-yl-4′-trifluoromethyl-6-(2-trifluoromethyl-phenoxymethyl)-biphenyl-3-yl]-amide] the value was 3 to 30 µM. Then `O=C(NC1CCc2ccccc2C1)C1CNCCC1c1ccc(COc2ccccc2C(F)(F)F)cc1` (centres unmarked) [Compound 219, 4-[4-(2-Trifluoromethyl-phenoxymethyl)-phenyl]-piperidine-3-carboxylic acid (1,2,3,4-tetrahydro-naphthalen-2-yl)-amide], with 3 to 30 µM; and `O=C(NCC1CNCCC1c1ccc(COc2ccccc2C(F)(F)F)cc1)Nc1cccc2ccccc12` (centres unmarked) [Compound 224, 1-Naphthalen-1-yl-3-{4-[4-(2-trifluoromethyl-phenoxymethyl)-phenyl]-piperidin-3-ylmethyl}-urea], with 3 to 30 µM.

`O=C(OCc1ccccc1-c1ccc(C2=CCNCC2)c(COc2ccccc2C(F)(F)F)c1)c1ccccc1` [Compound 379, Benzoic acid 4′-(1,2,3,6-tetrahydro-pyridin-4-yl)-3′-(2-trifluoromethyl-phenoxymethyl)-biphenyl-2-yl methyl ester]: the Ki was < 3 µM. Then `O=C(Nc1cc(-c2ccccc2)c(COc2ccccc2C(F)(F)F)cc1N1CCNCC1)c1nccc2ccccc12` [Compound 184, Isoquinoline-1-carboxylic acid [4-piperazin-1-yl-6-(2-trifluoromethyl-phenoxymethyl)-biphenyl-3-yl]-amide], with < 3 µM; and `NC(=O)c1cccc(-c2cc(COc3ccccc3C(F)(F)F)c(C3=CCNCC3)cc2COc2ccccc2C(F)(F)F)c1` [Compound 364, 4′-(1,2,3,6-Tetrahydro-pyridin-4-yl)-2′,5′-bis-(2-trifluoromethyl-phenoxymethyl)-biphenyl-3-carboxylic acid amide], with < 3 µM; and `C1=C(c2cnc(OCc3ccccc3)nc2OCc2ccccc2)CCNC1` [Compound 210, 2,4-Bis-benzyloxy-5-(1,2,3,6-tetrahydro-pyridin-4-yl)-pyrimidine], with 3 to 30 µM. `O=C(OCc1cc(C2=CCNCC2)c(COc2ccccc2C(F)(F)F)cc1-c1ccoc1)c1ccccn1` [Compound 389, Pyridine-2-carboxylic acid 2-furan-3-yl-5-(1,2,3,6-tetrahydro-pyridin-4-yl)-4-(2-trifluoromethyl-phenoxymethyl)-benzyl ester]: the Ki lay within 3 to 30 µM.

For the compound `O=C(Nc1cc(C(F)(F)F)cc(NC(=O)c2ccc3ccccc3c2)c1N1CCNCC1)c1ccc2ccccc2c1` [Compound 115, 4-{2,6-Bis-[(naphthalene-2-carbonyl)-amino]-4-trifluoromethyl-phenyl}-piperazine], the Ki is 3 to 30 µM. Then `Ic1ccccc1COc1ccc2c(c1)c1c(n2Cc2cccc3ccccc23)CNCC1` [Compound 520, 6-(2-Iodo-benzyloxy)-9-naphthalen-1-ylmethyl-2,3,4,9-tetrahydro-1H-b-carboline], with < 3 µM. Then `O=C(Nc1ccc(-c2ccc(Cl)c(Cl)c2)cc1N1CCNCC1)c1cccc2ccccc12` [Compound 173, Naphthalene-1-carboxylic acid (3′,4′-dichloro-3-piperazin-1-yl-biphenyl-4-yl)-amide], with < 3 µM; and `COc1ccc2c(c1)c1c(n2C(=O)c2ccc3ccccc3c2)CNCC1` [Compound 502, (6-Methoxy-1,2,3,4-tetrahydro-b-carbolin-9-yl)-naphthalen-2-yl-methanone], with > 30 µM.

In the case of `FC(F)(F)c1cccc(COc2ccc3c(c2)c2c(n3Cc3ccc4ccccc4c3)CNCC2)c1` [Compound 537, 9-Naphthalen-2-ylmethyl-6-(3-trifluoromethyl-benzyloxy)-2,3,4,9-tetrahydro-1H-b-carboline], the Ki was < 3 µM. Then `O=C(Nc1cc(-c2ccncc2)ccc1N1CCNCC1)c1cccc2ccccc12` [Compound 111, Naphthalene-1-carboxylic acid (2-piperazin-1-yl-5-pyridin-4-yl-phenyl)-amide], with 3 to 30 µM; and `O=C(Nc1cc(C(F)(F)F)cc(NC(=O)c2cccc3ccccc23)c1N1CCNCC1)c1cccc2ccccc12` [Compound 127, 4-{2,6-Bis-[(naphthalene-1-carbonyl)-amino]-4-trifluoromethyl-phenyl}-piperazine], with 3 to 30 µM. For `O=C(Nc1cc(C(F)(F)F)ccc1N1CCNCC1)c1ccc(F)c2ccccc12` [Compound 101, 4-Fluoro-naphthalene-1-carboxylic acid (2-piperazin-1-yl-5-trifluoromethyl-phenyl)-amide] the value was > 30 µM; for `COc1ccc2c(c1)c1c(n2Cc2ccc3ccccc3c2)CNCC1` [Compound 503, 6-Methoxy-9-naphthalen-2-ylmethyl-2,3,4,9-tetrahydro-1H-b-carboline], > 30 µM; for `O=C(Nc1cc(-c2ccc(S(=O)(=O)NCc3ccccc3)cc2)ccc1N1CCNCC1)c1cccc2ccccc12` [Compound 146, Naphthalene-1-carboxylic acid (4′-benzylsulfamoyl-4-piperazin-1-yl-biphenyl-3-yl)-amide], < 3 µM. Then `O=C(OCc1ccccc1-c1ccc(C2=CCNCC2)c(COc2ccccc2C(F)(F)F)c1)c1ccccc1C(F)(F)F` [Compound 380, 2-Trifluoromethyl-benzoic acid 4′-(1,2,3,6-tetrahydro-pyridin-4-yl)-3′-(2-trifluoromethyl-phenoxymethyl)-biphenyl-2-ylmethyl ester], with < 3 µM. On to `O=C(c1ccc2ccccc2c1)n1c2c(c3cc(OCc4cc(C(F)(F)F)ccc4Cl)ccc31)CCNC2` [Compound 511, [6-(2-Chloro-5-trifluoromethyl-benzyloxy)-1,2,3,4-tetrahydro-b-carbolin-9-yl]-naphthalen-2-yl-methanone], for which the Ki is < 3 µM. Then `O=C(Nc1cc(F)c(Br)cc1N1CCNCC1)c1cccc2ccccc12` [Compound 157, Naphthalene-1-carboxylic acid (4-bromo-5-fluoro-2-piperazin-1-yl-phenyl)-amide], with > 30 µM; and `O=C(Nc1ccc(-c2ccc(Cl)c(Cl)c2)nc1N1CCNCC1)c1cccc2ccccc12` [Compound 227, Naphthalene-1-carboxylic acid [6-(3,4-dichloro-phenyl)-2-piperazin-1-yl-pyridin-3-yl]-amide], with < 3 µM; and `Cc1cc(Cl)ccc1OCCCC(=O)N1CCNCC1C(=O)Nc1ccc2ccccc2c1` (centres unmarked) [Compound 200, 1-[4-(4-Chloro-2-methyl-phenoxy)-butyryl]-piperazine-2-carboxylic acid naphthalen-2-ylamide], with > 30 µM. For `Fc1ccccc1-c1cc(COc2ccccc2C(F)(F)F)c(C2=CCNCC2)cc1COc1ccccc1C(F)(F)F` [Compound 347, 4-[2′-Fluoro-2,5-bis-(2-trifluoromethyl-phenoxymethyl)-biphenyl-4-yl]-1,2,3,6-tetrahydro-pyridine] the value was < 3 µM; for `O=C(Nc1ccc(OCc2ccccc2)cc1N1CCNCC1)c1cccc2ccccc12` [Compound 156, Naphthalene-1-carboxylic acid (4-benzyloxy-2-piperazin-1-yl-phenyl)-amide], > 30 µM.

The values are drawn from US20030095958A1, “Inhibitors of bace” (priority 2001, published 2003).
